The values below are quoted from earlier work in patent publication US8394592B2, “Methods for assessing cancer susceptibility to carcinogens in tobacco products” (The Board of Regents of the University of Texas System, priority 2006, dated 2013).

One series deals with rats. The following applies: cited from earlier work.
The next series relates to Salmonella. The following applies: Ames Salmonella assay; cited from earlier work.

With `CN(CCCC(=O)c1cccnc1)N=O` [NNK, 4-(methylnitrosamino)-1-(3-pyridyl)-1-butanone], the “lowest dose shown to induce lung tumors” value with rats was 1.8 mg. Moreover, the mutagenicity entry with Salmonella is “potent mutagen”.
